“And” between values parts separate entries of the source, which are not always exact repeats. Equal values may be shown once. Where a SMILES comes first, the peptide text is derived from it. [ ]: non-standard residue; d: D form. Hyp = O=C(O)[C@@H]1C[C@@H](O)CN1
Experiments:
[1] = test system: CCL20/MIP-3 alpha; assay: Example 9 Luminex, LPS hPBMCs: CCL20/MIP-3 alpha; assay type: cell-based, human; conditions: for MFI, CCL20/MIP-3 alpha / conc/live cell, CCL20/MIP-3 alpha / Concentration, CCL20/MIP-3 alpha: no LPS
Procedure: (§1) Treatment Human PBMCs were pretreated with YY-101, YDE-011 and YDE-043 or reference compound; Xiidra® at various concentration (ranging from 1 nM to 100 uM) for 2 h before stimulation. An equal volume of 0.5% DMSO was used as a vehicle control. Then, the cells were treated with LPS at 5 ug/ml. The supernatants from treated cells were harvested at 24 h and placed in a 96 well for Luminex cytokine & chemokine profiling using a Luminex 200 multiplex assay (Luminex; R&D system, USA).
(§2) The main study arm with triplicate wells per group in a 24-well plate: • 1. Blank • 2. PBMC: 0.5% DMSO • 3. PBMC+LPS (5 ug/ml) • 4. PBMC+YY-101 100 uM • 5. PBMC+YY-101 10 uM • 6. PBMC+YY-101 1 uM • 7. PBMC+YY-101 0.1 uM • 8. PBMC+YY-101 0.01 uM • 9. PBMC+LPS (5 ug/ml)+Xiidra®100 uM • 10. PBMC+LPS (5 ug/ml)+Xiidra® 10 uM • 11. PBMC+LPS (5 ug/ml)+Xiidra® 1 uM • 12. PBMC+LPS (5 ug/ml)+Xiidra®0.1 uM • 13. PBMC+LPS (5 ug/ml)+Xiidra®0.01 uM • 14. PBMC+LPS (5 ug/ml)+Xiidra®0.001 uM • 15. PBMC+LPS (5 ug/ml)+YY-101 100 uM • 16. PBMC+LPS (5 ug/ml)+YY-101 10 uM • 17. PBMC+LPS (5 ug/ml)+YY-101 1 uM • 18. PBMC+LPS (5 ug/ml)+YY-101 0.1 uM • 19. PBMC+LPS (5 ug/ml)+YY-101 0.01 uM • 20. PBMC+LPS (5 ug/ml)+YY-101 0.001 uM • 21. PBMC+LPS (5 ug/ml)+YDE-011 100 uM • 22. PBMC+LPS (5 ug/ml)+YDE-011 10 uM • 23. PBMC+LPS (5 ug/ml)+YDE-011 1 uM • 24. PBMC+LPS (5 ug/ml)+YDE-011 0.1 uM • 25. PBMC+LPS (5 ug/ml)+YDE-011 0.01 uM • 26. PBMC+LPS (5 ug/ml)+YDE-011 0.001 uM • 27. PBMC+LPS (5 ug/ml)+YDE-043 100 uM • 28. PBMC+LPS (5 ug/ml)+YDE-043 10 uM • 29. PBMC+LPS (5 ug/ml)+YDE-043 1 uM • 30. PBMC+LPS (5 ug/ml)+YDE-043 0.1 uM • 31. PBMC+LPS (5 ug/ml)+YDE-043 0.01 uM • 32. PBMC+LPS (5 ug/ml)+YDE-043 0.001 uM
(§3) Multiplex assay was used to measure 30 cytokines and chemokines. The 1:2, 1:10 and 1:200 diluted cell supernatant and serial dilution of the standard were dispensed into a 96 well plate at 50 ul/well. Then, the pre-mixed cocktail of antibody-coated magnetic beads was dispensed at 50 ul/well and incubated at room temperature for 2 h in a horizontal orbital microplate shaker at 800±500 rpm. The beads were washed using a magnetic device to prevent loss. The biotin-antibody was dispensed in 50 ul of each well and incubated at room temperature for 1 h in a shaker at 800±500 rpm. After washing, streptavidin-PE was added at 50 ul/well and incubated at room temperature for 30 min in a shaker under the same conditions. Finally, after washing, wash buffer (100 ul/well) was added to the plate and incubated in a shaker for 2 min. The Luminex™ 200 setting were set according to the manufacturer's protocol. The data was calculated with a standard five-parameter logistic nonlinear regression analysis of the data (xPonent software 4.2, USA). The levels of cytokine/chemokine are normalized to the live cell counts (1×10^5 cells/mL) and presented as concentrations per mL (pg/mL or ng/mL).

[2] = test system: MMP-9; assay: Example 9 Luminex, LPS hPBMCs: MMP-9; assay type: cell-based, human
Procedure: as §1, §2, §3

[3] = PBMC + test article 10 uM, Mean
[4] = PBMC + test article 10 uM, individual replicate
[5] = PBMC + test article 100 uM, Mean
[6] = PBMC + test article 100 uM, individual replicate
[7] = PBMC + 0.01 uM, no LPS, single replicates
[8] = PBMC + 0.1 uM, no LPS, single replicates
[9] = PBMC + 1 uM, no LPS, single replicates
[10] = PBMC + 10 uM, no LPS, single replicates
[11] = PBMC + 100 uM, no LPS, single replicates
[12] = PBMC + LPS(5 ug/ml) + 0.001 uM, Mean
[13] = PBMC + LPS(5 ug/ml) + 0.001 uM, single replicates
[14] = PBMC + LPS(5 ug/ml) + 0.01 uM, Mean
[15] = PBMC + LPS(5 ug/ml) + 0.01 uM, single replicates
[16] = PBMC + LPS(5 ug/ml) + 0.1 uM, Mean
[17] = PBMC + LPS(5 ug/ml) + 0.1 uM, single replicates
[18] = PBMC + LPS(5 ug/ml) + 1 uM, Mean
[19] = PBMC + LPS(5 ug/ml) + 1 uM, single replicates
[20] = PBMC + LPS(5 ug/ml) + 10 uM, Mean
[21] = PBMC + LPS(5 ug/ml) + 10 uM, single replicates
[22] = PBMC + LPS(5 ug/ml) + 100 uM, Mean
[23] = PBMC + LPS(5 ug/ml) + 100 uM, single replicates

CC(C)C[C@H](NC(=O)CNC(=O)[C@H](CC(=O)O)NC(=O)[C@H](CCC(N)=O)NC(=O)CNC(=O)[C@@H]1C[C@@H](O)CN1)C(=O)N[C@@H](C)C(=O)NCC(=O)N1CCC[C@H]1C(=O)N[C@@H](CCCCN)C(=O)O [YY-101] (H-[Hyp]GQDGLAGPK-OH; N-terminus and C-terminus assumed)
MFI, CCL20/MIP-3 alpha [1, 3]: 36.5 | conc/live cell, CCL20/MIP-3 alpha [1, 3]: 6.6 pg/10^5 | Concentration, CCL20/MIP-3 alpha [1, 4]: 57.4 pg/mL and 25.3 pg/mL | MFI, CCL20/MIP-3 alpha [1, 4]: 51.5 and 21.5 | conc/live cell, CCL20/MIP-3 alpha [1, 4]: 9.0 pg/10^5 and 4.1 pg/10^5 | Concentration, CCL20/MIP-3 alpha [1, 5]: 22.4 pg/mL | MFI, CCL20/MIP-3 alpha [1, 5]: 19.3 | conc/live cell, CCL20/MIP-3 alpha [1, 5]: 3.4 pg/10^5 | Concentration, CCL20/MIP-3 alpha [1, 6]: 29.8 pg/mL and 14.9 pg/mL | MFI, CCL20/MIP-3 alpha [1, 6]: 25.5 and 13.0 | conc/live cell, CCL20/MIP-3 alpha [1, 6]: 4.7 pg/10^5 and 2.1 pg/10^5 | LPS-induced CCL20 levels (in words) ([1]; at 100.iM, LPS 5 ug/mL 24 hrs): further increased | MMP-9 Concentration ([2]; PBMC + 0.01 uM, no LPS, Mean): 6947.7 pg/mL | MMP-9 conc/live cell ([2]; PBMC + 0.01 uM, no LPS, Mean): 1395.6 pg/10^5 | MMP-9 Concentration [2, 7]: 6464.0 pg/mL and 7431.3 pg/mL | MMP-9 conc/live cell [2, 7]: 1243.1 pg/10^5 and 1548.2 pg/10^5 | MMP-9 Concentration ([2]; PBMC + 0.1 uM, no LPS, Mean): 7041.0 pg/mL | MMP-9 conc/live cell ([2]; PBMC + 0.1 uM, no LPS, Mean): 1365.4 pg/10^5 | MMP-9 Concentration [2, 8]: 5521.9 pg/mL and 8560.2 pg/mL | MMP-9 conc/live cell [2, 8]: 1255.0 pg/10^5 and 1475.9 pg/10^5 | MMP-9 Concentration ([2]; PBMC + 1 uM, no LPS, Mean): 7016.7 pg/mL | MMP-9 conc/live cell ([2]; PBMC + 1 uM, no LPS, Mean): 1275.8 pg/10^5 | MMP-9 Concentration [2, 9]: 6666.8 pg/mL and 7366.6 pg/mL | MMP-9 conc/live cell [2, 9]: 1212.2 pg/10^5 and 1339.4 pg/10^5 | MMP-9 Concentration ([2]; PBMC + 10 uM, no LPS, Mean): 10460.4 pg/mL | MMP-9 conc/live cell ([2]; PBMC + 10 uM, no LPS, Mean): 1662.8 pg/10^5 | MMP-9 Concentration [2, 10]: 13551.9 pg/mL and 7369.0 pg/mL | MMP-9 conc/live cell [2, 10]: 2117.5 pg/10^5 and 1208.0 pg/10^5 | MMP-9 Concentration ([2]; PBMC + 100 uM, no LPS, Mean): 5317.6 pg/mL | MMP-9 conc/live cell ([2]; PBMC + 100 uM, no LPS, Mean): 799.8 pg/10^5 | MMP-9 Concentration [2, 11]: 6000.1 pg/mL and 4635.0 pg/mL | MMP-9 conc/live cell [2, 11]: 937.5 pg/10^5 and 662.1 pg/10^5 | MMP-9 Concentration [2, 12]: 182.3 pg/mL | MMP-9 conc/live cell [2, 12]: 28.3 pg/10^5 | MMP-9 Concentration [2, 13]: 152.0 pg/mL and 155.2 pg/mL and 239.8 pg/mL | MMP-9 conc/live cell [2, 13]: 26.7 pg/10^5 and 21.9 pg/10^5 and 36.3 pg/10^5 | MMP-9 Concentration [2, 14]: 150.9 pg/mL | MMP-9 conc/live cell [2, 14]: 24.5 pg/10^5 | MMP-9 Concentration [2, 15]: 161.5 pg/mL and 155.2 pg/mL and 135.8 pg/mL | MMP-9 conc/live cell [2, 15]: 25.2 pg/10^5 and 25.9 pg/10^5 and 22.3 pg/10^5 | MMP-9 Concentration [2, 16]: 114.6 pg/mL | MMP-9 conc/live cell [2, 16]: 19.7 pg/10^5 | MMP-9 Concentration [2, 17]: 102.0 pg/mL and 119.2 pg/mL and 122.6 pg/mL | MMP-9 conc/live cell [2, 17]: 16.5 pg/10^5 and 22.9 pg/10^5 and 19.8 pg/10^5 | MMP-9 Concentration [2, 18]: 167.7 pg/mL | MMP-9 conc/live cell [2, 18]: 25.8 pg/10^5 | MMP-9 Concentration [2, 19]: 155.2 pg/mL and 161.5 pg/mL and 186.3 pg/mL | MMP-9 conc/live cell [2, 19]: 24.6 pg/10^5 and 22.8 pg/10^5 and 30.1 pg/10^5 | MMP-9 Concentration [2, 20]: 157.2 pg/mL | MMP-9 conc/live cell [2, 20]: 24.0 pg/10^5 | MMP-9 Concentration [2, 21]: 161.5 pg/mL and 167.8 pg/mL and 142.4 pg/mL | MMP-9 conc/live cell [2, 21]: 26.9 pg/10^5 and 26.2 pg/10^5 and 18.7 pg/10^5 | MMP-9 Concentration [2, 22]: 96.1 pg/mL | MMP-9 conc/live cell [2, 22]: 16.5 pg/10^5 | MMP-9 Concentration [2, 23]: 98.5 pg/mL and 102.0 pg/mL and 87.7 pg/mL | MMP-9 conc/live cell [2, 23]: 15.6 pg/10^5 and 16.5 pg/10^5 and 17.5 pg/10^5

From patent US20230146455A1, “TREATMENT OF INFLAMMATORY DISEASES WITH PEPTIDES AND PHARMACEUTICAL COMPOSITIONS” (Yuyu Pharma, Inc., priority 2020, published 2023)
